From patent publication US6713506B2, “Tea polyphenol esters and analogs thereof for cancer prevention and treatment” (University of South Florida, priority 2000, dated 2004)
pIC50: −log10 of the molar value.

Target: chymotrypsin-like activity of purified 20S proteasome
Format: biochemical
Conditions: read-out: IC50 towards the chymotrypsin-like activity of purified 20S proteasome
Description: FIG. 8. […] A). […] Initially, 0.5 μg of purified 20S proteasome is incubated with 20 μM of a fluorogenic peptide substrate, Suc-Leu-Leu-Val-Tyr-AMC, for 30 min at 37° C. in 100 μl of assay buffer (20 mM Tris-HCl, pH 8.0) with various concentrations of tannic acid. After incubation, the reaction mixture is diluted to 200 μl with the assay buffer, followed by measurement of the hydrolyzed 7-amido-4-methyl-coumarin (AMC) groups using a fluorometer with an excitation filter of 380 nm and an emission filter of 460 nm. B). […] Tannic acid (0.3 μg/ml) and Glucose (180 μg/ml) are used in the proteasome activity assay as described above. C). […] Purified calpain I (3 μg) protein is incubated with 40 μM of a fluorogenic peptide substrate, Suc-Leu-Tyr-AMC, for 30 min at 37° C. in 100 μl of assay buffer (50 mM Tris-HCl, pH 7.5, containing 50 mM NaCl, 1 mM EDTA, 1 mM EGTA, 5 mM β-Mercaptoethanol, 5 mM CaCl2, and 0.1% CHAPS) in the absence (control) or presence of 5 μg/ml of tannic acid or 0.18 μg/ml of calpeptin (calpain inhibitor).
Inhibition of the proteasome activity in vitro by tea polyphenols—To measure the 20S proteasome chymotrypsin-like activity, 0.5 μg of a purified 20S proteasome (Calbiochem) is incubated with 20 μM of a fluorogenic peptide substrate, Suc-Leu-Leu-Val-Tyr-AMC (Calbiochem), for 30 min at 37° C. in 100 μl of assay buffer (20 mM Tris-HCl, pH 8.0), with or without tea polyphenols (purity >95%; Sigma) or tea extract. After incubation, the reaction mixture is diluted to 200 μl with the assay buffer, followed by measurement of the hydrolyzed 7-amido-4-methyl-coumarin (AMC) groups using a VersaFluor™ Fluorometer with an excitation filter of 380 nm and an emission filter of 460 nm (Bio-Rad).

chymotrypsin-like activity of purified 20S proteasome, sequence (Q9P992 whole entry): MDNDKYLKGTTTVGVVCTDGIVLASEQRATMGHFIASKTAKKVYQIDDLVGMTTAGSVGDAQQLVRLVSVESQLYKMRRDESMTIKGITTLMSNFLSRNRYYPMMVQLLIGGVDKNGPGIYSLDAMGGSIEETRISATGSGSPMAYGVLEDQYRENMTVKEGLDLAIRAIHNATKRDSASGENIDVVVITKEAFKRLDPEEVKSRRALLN

SMILES: Oc1cc(O)c2c(c1)O[C@H](c1cc(O)c(O)c(O)c1)[C@H](O)C2 [EGC, (−)-epigallocatechin]
- pIC50: 2.92
